Assay results from PubChem BioAssay (NCI).
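Five concentrations, 48 hours, 96-well plates. TGI: concentration producing complete growth inhibition.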

Tests used:
Test in all cases: NCI anticancer screen, dose series, 48 h
U251 CNS = tested on: U251 CNS
HCT-15 colon = tested on: HCT-15 colon
RXF 393 renal = tested on: RXF 393 renal
HL-60(TB) leukemia = tested on: HL-60(TB) leukemia
SNB-75 CNS = tested on: SNB-75 CNS
MOLT-4 leukemia = tested on: MOLT-4 leukemia
OVCAR-4 ovarian = tested on: OVCAR-4 ovarian
OVCAR-3 ovarian = tested on: OVCAR-3 ovarian
SK-MEL-28 melanoma = tested on: SK-MEL-28 melanoma
UO-31 renal = tested on: UO-31 renal
A549 NSCLC = tested on: A549 NSCLC
XF 498 CNS = tested on: XF 498 CNS
CCRF-CEM leukemia = tested on: CCRF-CEM leukemia
RPMI-8226 leukemia = tested on: RPMI-8226 leukemia
DMS 273 small cell lung = tested on: DMS 273 small cell lung
SF-295 CNS = tested on: SF-295 CNS
OVCAR-5 ovarian = tested on: OVCAR-5 ovarian
COLO 205 colon = tested on: COLO 205 colon
EKVX NSCLC = tested on: EKVX NSCLC
KM12 colon = tested on: KM12 colon
OVCAR-8 ovarian = tested on: OVCAR-8 ovarian
SK-OV-3 ovarian = tested on: SK-OV-3 ovarian
HOP-92 NSCLC = tested on: HOP-92 NSCLC
SN12C renal = tested on: SN12C renal
LOX IMVI melanoma = tested on: LOX IMVI melanoma
HT29 colon = tested on: HT29 colon
HOP-62 NSCLC = tested on: HOP-62 NSCLC
KM20L2 colon = tested on: KM20L2 colon
SW-620 colon = tested on: SW-620 colon
MALME-3M melanoma = tested on: MALME-3M melanoma
ACHN renal = tested on: ACHN renal
DLD-1 colon = tested on: DLD-1 colon
SF-268 CNS = tested on: SF-268 CNS
UACC-257 melanoma = tested on: UACC-257 melanoma
NCI-H226 lung = tested on: NCI-H226 lung
NCI-H522 lung = tested on: NCI-H522 lung
HCC-2998 colon = tested on: HCC-2998 colon
SNB-78 CNS = tested on: SNB-78 CNS
CAKI-1 renal = tested on: CAKI-1 renal
786-0 renal = tested on: 786-0 renal
DMS 114 small cell lung = tested on: DMS 114 small cell lung
SNB-19 CNS = tested on: SNB-19 CNS
HOP-18 NSCLC = tested on: HOP-18 NSCLC
TK-10 renal = tested on: TK-10 renal
K-562 leukemia = tested on: K-562 leukemia
LXFL 529 NSCLC = tested on: LXFL 529 NSCLC
SK-MEL-5 melanoma = tested on: SK-MEL-5 melanoma
M14 melanoma = tested on: M14 melanoma
NCI-H23 lung = tested on: NCI-H23 lung
NCI-H460 lung = tested on: NCI-H460 lung
M19-MEL melanoma = tested on: M19-MEL melanoma
HCT-116 colon = tested on: HCT-116 colon
SF-539 CNS = tested on: SF-539 CNS
IGROV1 ovarian = tested on: IGROV1 ovarian
A498 renal = tested on: A498 renal
UACC-62 melanoma = tested on: UACC-62 melanoma
SR leukemia = tested on: SR leukemia
SK-MEL-2 melanoma = tested on: SK-MEL-2 melanoma

Measured: TGI

CCc1cccc(C)c1NC(=O)CC(=O)NNC(N)=S
not listed: M19-MEL melanoma | HCT-116 colon | SF-539 CNS | IGROV1 ovarian | A498 renal | UACC-62 melanoma | SR leukemia | SK-MEL-2 melanoma
> 100 µM: all other assays above

CCCCCCCCCCn1cccc1/C=C/c1ccc(/C=C/c2cccn2CCCCCCCCCC)cc1
not listed: HCT-15 colon | MOLT-4 leukemia | SR leukemia | SK-MEL-2 melanoma
> 100 µM: all other assays above

Cc1cc(O)c(C=O)c(C)c1CCC1(C)C=Cc2cc(O)ccc2O1 (stereo not given)
38 µM: DLD-1 colon
67.6 µM: SF-295 CNS
48.8 µM: U251 CNS | CCRF-CEM leukemia
43.2 µM: HOP-62 NSCLC
38.6 µM: ACHN renal
38.9 µM: SF-539 CNS
29.8 µM: LXFL 529 NSCLC
60.5 µM: HOP-18 NSCLC
57.9 µM: HOP-92 NSCLC
37.1 µM: CAKI-1 renal
31.4 µM: OVCAR-8 ovarian
71.4 µM: MALME-3M melanoma
28.2 µM: NCI-H522 lung
67.9 µM: K-562 leukemia
54 µM: SK-MEL-28 melanoma
86.4 µM: SNB-78 CNS
43 µM: UACC-62 melanoma
94.4 µM: EKVX NSCLC
85.6 µM: SK-OV-3 ovarian
71.2 µM: SK-MEL-5 melanoma
79.1 µM: OVCAR-5 ovarian
82.2 µM: HT29 colon
56.3 µM: OVCAR-3 ovarian
53.9 µM: SK-MEL-2 melanoma
35 µM: M14 melanoma
57.4 µM: KM20L2 colon
55.1 µM: HCT-15 colon
52.7 µM: XF 498 CNS
30.4 µM: COLO 205 colon
60.3 µM: HL-60(TB) leukemia
45 µM: SW-620 colon
30.9 µM: HCT-116 colon
50.5 µM: MOLT-4 leukemia
79.2 µM: HCC-2998 colon
52.5 µM: NCI-H460 lung
53.7 µM: UACC-257 melanoma
46.4 µM: DMS 273 small cell lung
44.7 µM: DMS 114 small cell lung
67 µM: OVCAR-4 ovarian
56.1 µM: RPMI-8226 leukemia
94.1 µM: SNB-75 CNS
43.9 µM: NCI-H23 lung
40.3 µM: LOX IMVI melanoma
not listed: RXF 393 renal | UO-31 renal
> 100 µM: all other assays above
